The results in this text go back to ChEMBL document CHEMBL3046240, “A useful new insecticide bioassay using first-instar larvae of a net-spinning caddisfly, Cheumatopsyche brevilineata (Trichoptera: Hydropsychidae)” (J Pestic Sci, 2009).

Converted amounts (≈) assume the structure as drawn.

The test system of data set [1] is Cheumatopsyche. In words: Insecticidal activity against first-instar larvae of Cheumatopsyche brevilineata after 48 hr. It counts as functional, organism-based.
In data set [2] the test system is Daphnia pulex. As to the kind of experiment: Insecticidal activity against Daphnia pulex after 48 hr. In kind it is functional, organism-based.
A short description of data set [3]: Octanol-water partition coefficient, log KOW of the compound.
For data set [4], the system named is Daphnia magna. As to the kind of experiment: Insecticidal activity against Daphnia magna after 48 hr. In kind it is functional, organism-based.

Turning to `CCCCN(CCCC)SN(C)C(=O)Oc1cccc2c1OC(C)(C)C2` [CARBOSULFAN], the concentration giving a half-maximal response (EC50) (as a rule, the concentration that produces a half-maximal response) in data set [1] worked out at 1.49 ng/mL (≈ 0.00392 µM); in data set [2] it was 1.03 ng/mL (≈ 0.00271 µM). In addition, the logP (commonly the decadic logarithm of the partition coefficient of the neutral form, usually between octanol and water) in data set [3] is 5.4.

Consider `CCN(Cc1ccc(Cl)nc1)/C(=C/[N+](=O)[O-])NC`, for which the EC50 in data set [1] is 45 ng/mL (≈ 0.166 µM); in data set [4] it was over 100000 ng/mL.

In the case of `CCc1ccc(C(=O)NN(C(=O)c2cc(C)cc(C)c2)C(C)(C)C)cc1` [TEBUFENOZIDE], the EC50 in data set [1] is over 830 ng/mL; in data set [4], 3800 ng/mL (≈ 10.8 µM).

Take `N#C/N=C1\SCCN1Cc1ccc(Cl)nc1` [THIACLOPRID]: the EC50 in data set [1] amounted to 5.27 ng/mL (≈ 0.0209 µM); in data set [4], 22520 ng/mL (≈ 89.1 µM).

For `CCOP(=S)(OCC)Oc1cc(C)nc(C(C)C)n1` [DIMPYLATE], the EC50 in data set [1] is 1.77 ng/mL (≈ 0.00582 µM); in data set [4], 0.87 ng/mL (≈ 0.00286 µM).

Take `CC1=NNC(=O)N(/N=C/c2cccnc2)C1` [PYMETROZINE]: the EC50 in data set [1] was 112000 ng/mL (≈ 516 µM); in data set [4], 87000 ng/mL (≈ 400 µM).

Take `C/C(=N\C#N)N(C)Cc1ccc(Cl)nc1`: the EC50 is 3.35 ng/mL (≈ 0.015 µM) in data set [1] and 50000 ng/mL (≈ 225 µM) in data set [4]. Moreover, the logP in data set [3] came to 0.8.

In the case of `CS/C(C)=N\OC(=O)N(C)SN(C)C(=O)O/N=C(\C)SC` [THIODICARB], the EC50 is 145 ng/mL (≈ 0.409 µM) in data set [1] and 27 ng/mL (≈ 0.0762 µM) in data set [4]. In addition, the logP in data set [3] turned out to be 1.62.

For `CCOc1ccc(C(C)(C)COCc2cccc(Oc3ccccc3)c2)cc1` [ETOFENPROX], the results for the EC50 in data set [1] and in data set [4] were 0.116 ng/mL (≈ 0.000308 µM) and 0.57 ng/mL (≈ 0.00151 µM), respectively.

As to `CNC(=O)Oc1cccc2ccccc12` [CARBARIL], the EC50 in data set [1] came to 21.4 ng/mL (≈ 0.106 µM); in data set [4], 5.6 ng/mL (≈ 0.0278 µM). The same compound displayed a logP in data set [3] of 1.85.

As for `CN(C)C(CSC(N)=O)CSC(N)=O.Cl` [CARTAP HYDROCHLORIDE], the EC50 in data set [1] came out at 3.7 ng/mL; in data set [4], 65 ng/mL.

On to `COP(=S)(OC)Oc1ccc(SC)c(C)c1` [FENTHION], for which the EC50 was determined as 2.14 ng/mL (≈ 0.00769 µM) in data set [1] and 5.2 ng/mL (≈ 0.0187 µM) in data set [4].

Regarding `CCOC(=O)C(SP(=S)(OC)OC)c1ccccc1` (stereo unspecified) [PHENTHOATE], the EC50 came out at 0.88 ng/mL (≈ 0.00275 µM) in data set [1] and 0.34 ng/mL (≈ 0.00106 µM) in data set [4].

As for `CN(C)C(CSS(=O)(=O)c1ccccc1)CSS(=O)(=O)c1ccccc1` [BENSULTAP], the EC50 in data set [1] was 148 ng/mL (≈ 0.343 µM). In addition, in data set [4] (Daphnia magna, 48 h), the LC50 (commonly the concentration that kills 50% of the test population) turned out to be 200 ng/mL (≈ 0.463 µM). The compound further registered a logP in data set [3] of 2.28.

As to `CC1(C)C(C=C(Cl)Cl)C1C(=O)OCc1cccc(Oc2ccccc2)c1` (stereo unspecified) [PERMETHRIN], the EC50 amounted to 0.205 ng/mL (≈ 0.000524 µM) in data set [1] and 0.6 ng/mL (≈ 0.00153 µM) in data set [4]. In data set [3], the “log KOW” value was determined as 6.1.

Take `COP(=S)(OC)Oc1ccc([N+](=O)[O-])c(C)c1` [FENITROTHION]: the EC50 in data set [1] was found to be 7.78 ng/mL (≈ 0.0281 µM); in data set [4], 11 ng/mL (≈ 0.0397 µM). In addition, the logP in data set [3] was 3.43.

On to `CCOC(=O)CC(SP(=S)(OC)OC)C(=O)OCC` (stereo unspecified) [MALATHION], for which the results for the EC50 in data set [1] and in data set [4] were 1.81 ng/mL (≈ 0.00548 µM) and 1 ng/mL (≈ 0.00303 µM), respectively. In data set [3], this compound registered a logP of 2.75.

`CN/C(=N\[N+](=O)[O-])NCc1cnc(Cl)s1` [CLOTHIANIDINE]: the EC50 was 4.44 ng/mL (≈ 0.0178 µM) in data set [1] and over 119000 ng/mL in data set [4].

Consider `CN/C(=N/CC1CCOC1)N[N+](=O)[O-]` (stereo unspecified) [DINOTEFURAN], for which the results for the EC50 in data set [1] and in data set [4] were 10.4 ng/mL (≈ 0.0514 µM) and over 968300 ng/mL, respectively. The “log KOW” value in data set [3] is given as -0.644.

In the case of `O=[N+]([O-])/N=C1\NCCN1Cc1ccc(Cl)nc1` [IMIDACLOPRID], the EC50 in data set [1] was 4.22 ng/mL (≈ 0.0165 µM); in data set [4], 85200 ng/mL (≈ 333 µM).

Take `CNC(=O)ON=C(C)SC` [METHOMYL]: the EC50 in data set [1] was 68.1 ng/mL (≈ 0.42 µM); in data set [4] it was 8.8 ng/mL (≈ 0.0542 µM). In data set [3], this compound returned a logP of 0.093.

As for `N#Cc1nn(-c2c(Cl)cc(C(F)(F)F)cc2Cl)c(N)c1[S+]([O-])C(F)(F)F` (stereo unspecified) [FIPRONIL], the EC50 was 0.153 ng/mL (≈ 0.00035 µM) in data set [1] and 190 ng/mL (≈ 0.435 µM) in data set [4].

Turning to `COP(=O)(OC)C(O)C(Cl)(Cl)Cl` (stereo unspecified) [TRICHLORFON], the EC50 in data set [1] was 2.02 ng/mL (≈ 0.00785 µM); in data set [4], 0.36 ng/mL (≈ 0.0014 µM).

For the compound `CNC(=O)Oc1cc(C)cc(C)c1`, the values for the EC50 in data set [1] and in data set [4] were 58.9 ng/mL (≈ 0.329 µM) and 30 ng/mL (≈ 0.167 µM), respectively. Further, the logP in data set [3] is 2.3.

Consider `CCOc1ccc([Si](C)(C)CCCc2ccc(F)c(Oc3ccccc3)c2)cc1` [SILAFLUOFEN], for which the EC50 came to 0.6 ng/mL (≈ 0.00147 µM) in data set [1] and 1.2 ng/mL (≈ 0.00294 µM) in data set [4].

For `CCOC(=O)CCN(SN(C)C(=O)Oc1cccc2c1OC(C)(C)C2)C(C)C` [BENFURACARB], the EC50 in data set [1] was determined as 6.66 ng/mL (≈ 0.0162 µM); in data set [4], 9.9 ng/mL (≈ 0.0241 µM). In data set [3], this compound gave a logP of 4.22.

In the case of `CN(C)C1CSSSC1.O=C(O)C(=O)O` [THIOCYCLAM HYDROGEN OXALATE], the results for the EC50 in data set [1] and in data set [2] were 5.76 ng/mL and 2010 ng/mL, respectively. Also, in data set [3], the logP is -0.07.

`COP(=O)(OC)OC=C(Cl)Cl` [DICHLORVOS]: the EC50 in data set [1] stood at 1.17 ng/mL (≈ 0.00529 µM); in data set [4], 0.2 ng/mL (≈ 0.000905 µM). The compound also showed a logP in data set [3] of 1.9.

On to `CCC(C)c1ccccc1OC(=O)NC` (stereo unspecified) [FENOBUCARB], for which the EC50 in data set [1] was 9.48 ng/mL (≈ 0.0457 µM); in data set [2], 10.3 ng/mL (≈ 0.0497 µM). In data set [3], this compound had a logP of 2.79.

As to `CC(C)N1C(=O)N(c2ccccc2)CS/C1=N\C(C)(C)C` [BUPROFEZIN], the EC50 was 181 ng/mL (≈ 0.593 µM) in data set [1] and over 420 ng/mL in data set [4]. The logP in data set [3] came to 4.3.
